The target in test [1] is AMPK (hum). The test can be described thus: Premier Screen kinase activity screening (33P ATP filter binding). The class given is biochemical, human. Particulars: 10 μM SCO-101, mean of assay duplicates. The source says: (§1) The kinase activity screening was done at MRC in Dundee. The screen was a so-called “Premier Screen” with 140 kinases. More specific information can be found here: http://www.kinase-screen.mrc.ac.uk/services/premier-screen
(§2) The method is based on a radioactive filter binding assay using 33P ATP (Hastie, et al 2006. Nat Protoc. 2006; 1(2):968-71; Bain, et al 2007. Biochem J. 2007 Dec. 15; 408(3):297-315). This method is sensitive, accurate and provides a direct measure of kinase enzyme activity. A concentration of 10 μM SCO-101 was used.
(§3) In the table below, the data is portrayed as the mean percentage activity of assay duplicates and a standard deviation. These percentage activities were calculated in comparison to DMSO controls. 10 μM SCO-101 reduced the activity of SRPK1 to 6% of the DMSO control.

Test [2] has as its target CDK2-Cyclin A (Homo sapiens, UniProt P24941). The test is described as above. Format: biochemical. The settings on record: 10 μM SCO-101, mean of assay duplicates, read-out: Kinase activity (percentage of DMSO control). The method, boiled down:
(§4)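 Each kinase was incubated with 10 μM compound and 33P-ATP, and incorporated radioactivity was captured on filters as a direct measure of enzyme activity. Mean percentage activity of the duplicates was then calculated against DMSO controls and reported with its standard deviation.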

Test [3] addresses T1, SGK1 (Homo sapiens, UniProt O00141, S422D).
T1 construct: purchased MRC Dundee, Premier Screen (contract screening service)
Described as above. Format: biochemical. The settings on record: 10 μM SCO-101, mean of assay duplicates, read-out: Kinase activity (percentage of DMSO control). The method, boiled down: as §4

Test [4] addresses T2, SRPK1 (Homo sapiens, UniProt Q96SB4).
T2 construct: purchased MRC in Dundee (Premier Screen service)
The test is described as follows: Premier Screen kinase activity screening and IC50 determination (33P ATP filter binding). Format: biochemical.
Source text: as §1, §2, §3
This experiment was technically carried out as described in example 1, also done by MRC in Dundee. However, in this experiment 10 different concentrations of SCO-101 was applied in order to determine the half maximal inhibitory concentration (IC50). The following concentrations (in nM) were applied: 1.5, 5, 15, 50, 150, 500, 1500, 5000, […] and 50000. This experiment generated a dose response curve (FIG. 1), which confirmed the SCO-101 mediated inhibition of SRPK1. The IC50 value was determined to be 3.0 μM (Table 2).

Like-named read-outs stand apart in the source and are kept apart here.

T2 sequence (Q96SB4 whole entry): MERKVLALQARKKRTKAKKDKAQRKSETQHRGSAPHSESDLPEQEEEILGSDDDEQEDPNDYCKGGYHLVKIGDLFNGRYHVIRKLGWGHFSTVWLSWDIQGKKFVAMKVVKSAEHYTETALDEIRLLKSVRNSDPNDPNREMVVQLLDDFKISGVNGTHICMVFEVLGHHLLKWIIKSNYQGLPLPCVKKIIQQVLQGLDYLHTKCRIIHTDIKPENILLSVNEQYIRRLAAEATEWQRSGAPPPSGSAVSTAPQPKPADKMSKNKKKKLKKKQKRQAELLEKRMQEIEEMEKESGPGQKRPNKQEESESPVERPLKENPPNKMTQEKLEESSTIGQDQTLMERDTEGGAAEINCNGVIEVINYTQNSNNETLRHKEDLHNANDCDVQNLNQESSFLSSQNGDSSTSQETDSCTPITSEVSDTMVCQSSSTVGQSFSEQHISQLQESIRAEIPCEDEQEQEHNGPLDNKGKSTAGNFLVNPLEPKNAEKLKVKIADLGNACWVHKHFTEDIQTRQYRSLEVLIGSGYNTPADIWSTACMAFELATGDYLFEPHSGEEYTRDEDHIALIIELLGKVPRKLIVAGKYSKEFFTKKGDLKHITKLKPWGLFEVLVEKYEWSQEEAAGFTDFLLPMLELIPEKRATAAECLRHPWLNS
T1 sequence (O00141 60-431 S422D limits assumed, species assumed): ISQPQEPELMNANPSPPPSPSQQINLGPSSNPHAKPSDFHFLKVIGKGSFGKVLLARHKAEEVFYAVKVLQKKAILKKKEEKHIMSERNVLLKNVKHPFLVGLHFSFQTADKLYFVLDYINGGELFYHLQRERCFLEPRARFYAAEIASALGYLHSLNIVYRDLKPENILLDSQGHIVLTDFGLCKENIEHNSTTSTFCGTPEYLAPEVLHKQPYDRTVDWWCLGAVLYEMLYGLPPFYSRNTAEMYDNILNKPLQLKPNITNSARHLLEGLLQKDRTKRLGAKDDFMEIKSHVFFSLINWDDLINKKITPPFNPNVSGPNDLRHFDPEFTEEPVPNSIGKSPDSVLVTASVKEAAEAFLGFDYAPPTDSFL

For the compound `O=C(Nc1cc(C(F)(F)F)cc(C(F)(F)F)c1)Nc1ccc(Br)cc1-c1nnn[nH]1` [SCO-101], the “Kinase activity (percentage of DMSO control)” value in test [1] is given as 97 percentage of DMSO control. The remaining activity at 10 µM amounted to 113% in test [2]; 103% in test [3]; 6% in test [4] (10 μM SCO-101, mean of assay duplicates, read-out: Kinase activity (percentage of DMSO control)). Besides, the IC50 in test [4] (first determination, 10 concentrations, read-out: IC50) was 2.9 µM; in test [4] (mean of two determinations, read-out: mean IC50), 3 µM; in test [4] (second determination, 10 concentrations, read-out: IC50), 3 µM.

For orientation: IC50 means the concentration at which inhibition is half-maximal.

Values taken from patent US20210251963A1, “UREA DERIVATIVES FOR USE IN THE TREATMENT OF SUBJECTS WITH ELEVATED EXPRESSION AND/OR ACTIVITY OF SRPK1” (Scandion Oncology A/S, priority 2018, published 2021).
